Experimental data published in patent US4020164A, “Benzomorphan derivatives” (priority 1972, dated 1977).
Entries after “also recorded” stand apart in the source; their conditions may differ. Counter-ions that a name gives are not always drawn. Like-named read-outs stand apart in the source and are kept apart here.

Experiments:
electroshock = assay: Maximal electroshock test; type: in vivo; settings: mice; for ED50, Maximal Electroshock Test / ED50: 16 mA/50 c.p.s., 0.2 second, transcorneal, absence of tonic extensor cramp of hind limbs, 30 min; for ED50, Maximal Electroshock Test: s.c.; for ED50: Mus musculus, sc, 0.5 h
Method: 10-40 controls animals were used in each experiment. […] ED50 figures were rounded.
In the maximum electroshock test, the test substances were administered to dose groups of 6 mice. Sinusoidal pulses of 16 milliamperes/50 c.p.s. [Hertz] and 0.2 second duration were delivered transcorneally via silver electrodes. The shock intensity used elicits nonlethal tonic-clonic convulsions in control animals (p <0.01, N = 192). The criterion for protective effect was the absence of the tonic extensor cramp of the hind limbs after shock application (modified test according to Swinyard et al., J. Pharmacol. Exp. Ther. 106, 319, 1952).

apomorphine = assay: Apomorphine antagonism test; type: in vivo, mice; settings: for apomorphine-antagonistic activity compared with cyclazocine and pentazocine: vs. cyclazocine and pentazocine; for apomorphine-antagonistic activity compared with haloperidol: vs. haloperidol; for ED50, Apomorphine Antagonism: mouse, in vivo, 1.56 mg/kg; for ED50: read-out: ED50, Apomorphine Antagonism
Method: (§1) The pharmacological investigations were conducted on mice weighing 20-22 g. or on rats weighing 80-110 g. Unless indicated otherwise, the test substances were administered in the form of the hydrochloride acid addition salt thereof in an isotonic NaCl solution, and the animals were examined 30 minutes after subcutaneous (sc) application. The injection volume was respectively 5 ml./kg. of body weight. 10-40 controls animals were used in each experiment. The test and control solutions were administered in accordance with a randomized injection schedule. Seven logarithmically spaced dosages were employed of each test substance. The effective dose (ED) was calculated by probit analysis (Finney, D. J., "Probit Analysis," Cambridge University Press, 2nd Edition, Cambridge 1957). ED50 figures were rounded.
The criterion for antagonistic effect was the absence of stereotyped movements within an observation period of one minute.

phenylquinone [1] = assay: Writhing test, acute (phenylquinone writhing, analgesic activity); type: in vivo; settings: mice; for ED50, writhing test, acute p.o., 10 min. p.i. / ED50, writhing test, acute p.o., 30 min. p.i. / ED50, writhing test, acute s.c., 30 min. p.i. / ED50, writhing test, acute s.c., 10 min. p.i. / ED50: phenylquinone 2 mg/kg i.p., hydrochloride, acute; for potency in writhing test compared with cyclazocine: vs. cyclazocine; for potency in writhing test compared with morphine: vs. morphine; for potency in writhing test compared with pentazocine: vs. pentazocine
Method: as §1
(§2) In the acute test, the test compounds were administered perorally (p.o.) or subcutaneously (s.c.) to mice. Eight mice were used per dose. Seven minutes prior to the testing, the animals received 2 mg./kg. of phenylquinone intraperitoneally. […] The criterion for protective effect was absence of writhes during the eighth minute after phenylquinone administration.

morphine [2] = assay: animal or person; type: in vivo, rats; settings: for ED50, Morphine Antagonism-Tail-Flick Test, Rats: 6.25 mg/kg
morphine [3] = system: morphine; parameters: species or system mice; settings: mouse, in vivo; for ED50, Morphine Antagonism-Tail-Flick Test, Mice: 12.5 mg/kg
phenylquinone [4] = settings: mice; s.c.; 30 min p.i.; 25 hours after last injection of 64-hour pretreatment, total 550 mg/kg
Method: as §1, §2
In the subchronic test, the same test was performed 25 hours after the last injection of a 64-hour pretreatment period, with the test compound being administered subcutaneously. During the pretreatment period, the subjects received a total of 550 mg/kg. of the test compound, with the test compound being injected over a period of 22 hours in 4 increasing dosages in salt form, and over an additional 42 hours in 2 identical dosages in free base form in sesame oil.

morphine [5] = assay: Precipitated Withdrawal Jumping Test (morphine antagonism in morphine-dependent mice); type: in vivo
Method: as §1
The test compound was given to dose groups of 8 animals. The antagonist-precipitated withdrawal jumping frequencies were recorded during three 5-minute observation intervals uniformly distributed over 30 minutes after administration of the test compound. […] The criterion for a precipitating effect is a mean jumping frequency of >1/minute.

[6] = J. Pharmacol. Exp. Ther. 144, 12, 1964; Clin. Pharmacol. Ther. 11:1, 41, 1970; cited from earlier work
[7] = p.o., 10 min p.i., ED50 rounded
[8] = p.o., 30 min p.i., ED50 rounded
[9] = s.c., 30 min p.i., * = significant difference between acute and subchronic ED50 (p < 0.001)
[10] = s.c., 10 min p.i., ED50 rounded
[11] = morphine-dependent mice, criterion mean jumping frequency >1/minute

CCC12CCN(CC(C)(C)O)C(Cc3ccc(O)cc31)C2C (single isomer, unassigned; (-)) [Compound A, (-)-5-ethyl-2'-hydroxy-2-(2-hydroxy-2-methylpropyl)-9-methyl-6,7-benzomorphan]
muscle-relaxant and anti-convulsant effect in maximum electroshock test (in words) (electroshock): strong muscle-relaxant and anti-convulsant effect | ED50, Maximal Electroshock Test (electroshock): 8 mg/kg | apomorphine-antagonistic activity compared with cyclazocine and pentazocine (apomorphine; mice): markedly stronger activity than cyclazocine and pentazocine | apomorphine-antagonistic activity compared with haloperidol (apomorphine; mice): only slightly weaker effectiveness than haloperidol | ED50, Apomorphine Antagonism (apomorphine; sc): 0.3 mg/kg | ED50, writhing test, acute p.o., 10 min. p.i. (phenylquinone [1]; [7]): 3 mg/kg | ED50, writhing test, acute p.o., 30 min. p.i. (phenylquinone [1]; [8]): 7 mg/kg | ED50, writhing test, acute s.c., 30 min. p.i. (phenylquinone [1]; [9]): 0.2 mg/kg | potency in writhing test compared with cyclazocine (phenylquinone [1]): at least equipotent with cyclazocine | potency in writhing test compared with morphine (phenylquinone [1]): more potent than morphine | potency in writhing test compared with pentazocine (phenylquinone [1]): appreciably more potent than pentazocine

CC1C2Cc3ccc(O)cc3C1(C)CCN2CC(C)(C)O (single isomer, unassigned; (-)) [Compound B, (-)-2'-hydroxy-2-(2-hydroxy-2-methylpropyl)-5,9-dimethyl-6,7-benzomorphan]
morphine-antagonistic activity, tail-flick test (in words), rats (morphine [2]; rat, in vivo): marked activity | ED50, Morphine Antagonism-Tail-Flick Test, Rats (morphine [2]; rat, in vivo, sc): 3 mg/kg | morphine-antagonistic activity, tail-flick test (in words), mice (morphine [3]): marked activity | ED50, Morphine Antagonism-Tail-Flick Test, Mice (morphine [3]; sc): 5 mg/kg | muscle-relaxant and anti-convulsant effect in maximum electroshock test (in words) (electroshock): strong muscle-relaxant and anti-convulsant effect | ED50, Maximal Electroshock Test (electroshock): 4 mg/kg | apomorphine-antagonistic activity compared with cyclazocine and pentazocine (apomorphine; mice): markedly stronger activity than cyclazocine and pentazocine | apomorphine-antagonistic activity compared with haloperidol (apomorphine; mice): only slightly weaker effectiveness than haloperidol | ED50, Apomorphine Antagonism (apomorphine; sc): 0.3 mg/kg | ED50, writhing test, subchronic s.c., 30 min. p.i. (phenylquinone [4]): 0.4 mg/kg | ED50, writhing test, acute p.o., 10 min. p.i. (phenylquinone [1]; [7]): 5 mg/kg | ED50, writhing test, acute p.o., 30 min. p.i. (phenylquinone [1]; [8]): 10 mg/kg | ED50, writhing test, acute s.c., 10 min. p.i. (phenylquinone [1]; [10]): 0.05 mg/kg | ED50, writhing test, acute s.c., 30 min. p.i. (phenylquinone [1]; [9]): 0.4 mg/kg | potency in writhing test compared with cyclazocine (phenylquinone [1]): at least equipotent with cyclazocine | potency in writhing test compared with morphine (phenylquinone [1]): more potent than morphine | potency in writhing test compared with pentazocine (phenylquinone [1]): appreciably more potent than pentazocine | precipitated withdrawal effect (in words) (morphine [5]; morphine-dependent mice): inactivity | sedative and muscle-relaxant effect (explaining inactivity in jumping test) (morphine [5]; morphine-dependent mice): simultaneous sedative and muscle-relaxant effect | ED50, Precipitated Withdrawal Jumping Test (inactive, footnote 1) (morphine [5]; morphine-dependent mice, tested at 0.1 - 3.13 mg/kg): Inactive

CCC12CCN(CC(C)O)C(Cc3ccc(O)cc31)C2C (single isomer, unassigned; (-)) [Compound C, (-)-5-ethyl-2'-hydroxy-2-(2-hydroxypropyl)-9-methyl-6,7-benzomorphan]
morphine-antagonistic activity, tail-flick test (in words), rats (morphine [2]; rat, in vivo): marked activity | ED50, Morphine Antagonism-Tail-Flick Test, Rats (morphine [2]; rat, in vivo, sc): 2 mg/kg | morphine-antagonistic activity, tail-flick test (in words), mice (morphine [3]): marked activity | ED50, Morphine Antagonism-Tail-Flick Test, Mice (morphine [3]; sc): 1 mg/kg | precipitated withdrawal effect (in words) (morphine [5]; morphine-dependent mice): considerable activity | ED50, Precipitated Withdrawal Jumping Test (morphine [5]; [11]): 7 mg/kg

CC(O)CN1CCC2(C)c3cc(O)ccc3CC1C2C (single isomer, unassigned; (-)) [Compound D, (-)-2'-hydroxy-2-(2-hydroxypropyl)-5,9-dimethyl-6,7-benzomorphan]
morphine-antagonistic activity, tail-flick test (in words), rats (morphine [2]; rat, in vivo): marked activity | ED50, Morphine Antagonism-Tail-Flick Test, Rats (morphine [2]; rat, in vivo, sc): 2 mg/kg | morphine-antagonistic activity, tail-flick test (in words), mice (morphine [3]): marked activity | ED50, Morphine Antagonism-Tail-Flick Test, Mice (morphine [3]; sc): 1 mg/kg | precipitated withdrawal effect (in words) (morphine [5]; morphine-dependent mice): considerable activity | ED50, Precipitated Withdrawal Jumping Test (morphine [5]; [11]): 9 mg/kg

CNC1=Nc2ccc(Cl)cc2C(c2ccccc2)=[N+]([O-])C1 [Chlordiazepoxide, reference compound]
ED50 (electroshock): 12 mg/kg

C[C@H]1[C@H]2Cc3ccc(O)cc3[C@]1(C)CCN2CC1CC1 [Cyclazocine, reference compound]
ED50 (morphine [2]; Rattus norvegicus, sc, read-out: ED50, Morphine Antagonism-Tail-Flick Test, Rats): 0.2 mg/kg | ED50, Morphine Antagonism-Tail-Flick Test, Mice (morphine [3]; sc): 0.1 mg/kg | properties of cyclazocine from the literature [6]: narcotic partial antagonist of the benzomorphan series with analgesic; also recorded: antidepressant properties | ED50 (electroshock): 2 mg/kg | muscle-relaxant and anti-convulsant effect in maximum electroshock test (in words) (electroshock): strong muscle-relaxant and anti-convulsant effect | ED50 (apomorphine; Mus musculus, sc): 6 mg/kg | ED50 (phenylquinone [1]; Mus musculus, po, 10 min, p.o., 10 min p.i., ED50 rounded, read-out: ED50, writhing test, acute p.o., 10 min. p.i.): 6 mg/kg | ED50 (phenylquinone [1]; Mus musculus, po, 0.5 h, p.o., 30 min p.i., ED50 rounded, read-out: ED50, writhing test, acute p.o., 30 min. p.i.): 8 mg/kg | ED50 (phenylquinone [1]; Mus musculus, sc, 10 min, s.c., 10 min p.i., ED50 rounded, read-out: ED50, writhing test, acute s.c., 10 min. p.i.): 0.06 mg/kg | ED50 (phenylquinone [1]; Mus musculus, sc, 0.5 h, s.c., 30 min p.i., * = significant difference between acute and subchronic ED50 (p < 0.001), read-out: ED50, writhing test, acute s.c., 30 min. p.i.): 0.09 mg/kg | precipitated withdrawal effect (in words) (morphine [5]; morphine-dependent mice): inactivity | sedative and muscle-relaxant effect (explaining inactivity in jumping test) (morphine [5]; morphine-dependent mice): simultaneous sedative and muscle-relaxant effect | ED50, Precipitated Withdrawal Jumping Test (inactive, footnote 2) (morphine [5]; morphine-dependent mice, tested at 0.55 - 3.13 mg/kg): Inactive

O=C(CCCN1CCC(O)(c2ccc(Cl)cc2)CC1)c1ccc(F)cc1 [Haloperidol, reference compound]
ED50 (apomorphine; Mus musculus, sc): 0.1 mg/kg

CN1CC[C@]23c4c5ccc(O)c4O[C@H]2[C@@H](O)C=C[C@H]3[C@H]1C5 [Morphine, reference compound]
ED50, writhing test, subchronic s.c., 30 min. p.i. (phenylquinone [4]): 3 mg/kg | ED50, writhing test, acute p.o., 10 min. p.i. (phenylquinone [1]; [7]): 7 mg/kg | ED50, writhing test, acute p.o., 30 min. p.i. (phenylquinone [1]; [8]): 3 mg/kg | ED50, writhing test, acute s.c., 10 min. p.i. (phenylquinone [1]; [10]): 0.3 mg/kg | ED50, writhing test, acute s.c., 30 min. p.i. (phenylquinone [1]; [9]): 0.5 mg/kg

C=CCN1CC[C@]23c4c5ccc(O)c4O[C@H]2C(=O)CC[C@@]3(O)[C@H]1C5 [Naloxone, reference compound]
ED50 (morphine [5]; Mus musculus, sc, morphine-dependent mice, criterion mean jumping frequency >1/minute): 0.2 mg/kg | jumping frequency, solvent controls challenged with naloxone (morphine [5]; mice, solvent controls, naloxone 0.39 mg/kg, N = 80): 0.13 ± 0.06 min⁻¹

CN1CCc2cccc3c2[C@H]1Cc1ccc(O)c(O)c1-3 [apomorphine hydrochloride, reference compound]
ED95 (apomorphine; Mus musculus, sc, mice, ED95, s.c., read-out: apomorphine dose corresponding to an ED95 for the production of stereotyped behavior in the head region): 1.56 mg/kg

CN1CC[C@]23c4c5ccc(O)c4O[C@H]2[C@@H](O)C=C[C@H]3[C@H]1C5.O=S(=O)(O)O [morphine sulfate, reference compound]
morphine dose corresponding to the ED99, reaction times exceeding 95% value of controls (morphine [2]; rat, in vivo): 6.25 mg/kg | morphine dose corresponding to the ED80, reaction times exceeding 95% value of controls (morphine [3]; sc): 12.5 mg/kg

O=C1C=CC(=O)C(c2ccccc2)=C1 [phenylquinone, reference compound]
ED95 (phenylquinone [1]; Mus musculus, ip, 10 min, ED95, intraperitoneal, maximum action within 10 minutes p.i., read-out: phenylquinone dosage corresponding to the ED95 for the evocation of writhing): 2 mg/kg
